Source: ChEMBL document CHEMBL6087465, “Design, Synthesis, and Antitumor Activity Evaluation of 2-Phenylthiazole-5-Carboxylic Acid Derivatives Targeting Transactivation Response RNA-Binding Protein 2” (J Med Chem, 2025)
The source made the active and inactive calls. No cut-off for these calls is given here.

Tests used:
HCCLM3 [1] = test: Antiproliferative activity against human HCCLM3 cells cultured as 3D cells assessed as inhibition of colony formation at 25 uM incubated for 21 days by 3D soft-agar based microscopic analysis; format: functional, cell-based; conditions: time 21.0 day
HCCLM3 [2] = test: Antitumor activity against human HCCLM3 cells xenografted in BALB/c mouse assessed as inhibition of tumor growth at 50 mg/kg,ip administration measured after 22 days; format: functional, organism-based; conditions: time 22.0 day
[3] = Toxicity in BALB/c mouse xenografted with human HCCLM3 cells assessed as body weight loss at 50 mg/kg,ip administration measured after 22 days; format: organism-based; conditions: in vivo, 528 h, time 22 day
[4] = Toxicity in BALB/c mouse xenografted with human HCCLM3 cells assessed as change in mental state at 50 mg/kg,ip administration measured after 22 days; format: organism-based; conditions: in vivo, 528 h, time 22 day
[5] = Toxicity in BALB/c mouse xenografted with human HCCLM3 cells assessed as pathological change in heart at 50 mg/kg,ip administration measured after 22 days by hematoxylin and eosin staining based microscopic analysis; format: organism-based; conditions: in vivo, 528 h, time 22 day
[6] = Toxicity in BALB/c mouse xenografted with human HCCLM3 cells assessed as pathological change in liver at 50 mg/kg,ip administration measured after 22 days by hematoxylin and eosin staining based microscopic analysis; format: organism-based; conditions: in vivo, 528 h, time 22 day
[7] = Toxicity in BALB/c mouse xenografted with human HCCLM3 cells assessed as pathological change in spleen at 50 mg/kg,ip administration measured after 22 days by hematoxylin and eosin staining based microscopic analysis; format: organism-based; conditions: in vivo, 528 h, time 22 day
[8] = Toxicity in BALB/c mouse xenografted with human HCCLM3 cells assessed as pathological change in lung at 50 mg/kg,ip administration measured after 22 days by hematoxylin and eosin staining based microscopic analysis; format: organism-based; conditions: in vivo, 528 h, time 22 day
[9] = Toxicity in BALB/c mouse xenografted with human HCCLM3 cells assessed as pathological change in kidney at 50 mg/kg,ip administration measured after 22 days by hematoxylin and eosin staining based microscopic analysis; format: organism-based; conditions: in vivo, 528 h, time 22 day
[10] = Half life in Wistar rat at 100 mg/kg,po administration measured upto 96 hrs by HPLC-UV analysis; conditions: in vivo
SK-HEP1 [11] = test: Antiproliferative activity against human SK-HEP1 cells cultured as 2D cells assessed as inhibition of cell growth at 10 uM incubated for 72 hrs by CCK-8 assay; format: functional, cell-based
HCCLM3 [12] = test: Antiproliferative activity against human HCCLM3 cells cultured as 2D cells assessed as inhibition of cell growth at 10 uM incubated for 72 hrs by CCK-8 assay; format: functional, cell-based
SK-HEP1 [13] = test: Antiproliferative activity against human SK-HEP1 cells cultured as 3D cells assessed as inhibition of cell growth at 10 uM incubated for 72 hrs by CellTiter-Lumi assay; format: functional, cell-based
HCCLM3 [14] = test: Antiproliferative activity against human HCCLM3 cells cultured as 3D cells assessed as inhibition of cell growth at 10 uM incubated for 72 hrs by CellTiter-Lumi assay; format: functional, cell-based
SK-HEP1 [15] = test: Inhibition of cell migration in human SK-HEP1 cells at 10 uM incubated for 24 hrs by wound healing assay; format: functional, cell-based
HCCLM3 [16] = test: Inhibition of cell migration in human HCCLM3 cells at 10 uM incubated for 24 hrs by wound healing assay; format: functional, cell-based
SK-HEP1 [17] = test: Inhibition of cell migration in human SK-HEP1 cells at 10 uM incubated for 24 hrs by transwell assay; format: functional, cell-based
HCCLM3 [18] = test: Inhibition of cell migration in human HCCLM3 cells at 10 uM incubated for 24 hrs by transwell assay; format: functional, cell-based
Homo sapiens = species: Homo sapiens; test: Inhibition of recombinant human TRBP/recombinant human Dicer protein protein interaction at 25 uM by indirect-competition-ELISA
SK-HEP1 [19] = test: Antiproliferative activity against TARBP2-knockout human SK-HEP1 cells cultured as 3D cells assessed as inhibition of cell growth at 25 uM incubated for 72 hrs by CellTiter-Lumi assay; format: functional, cell-based
HCCLM3 [20] = test: Antiproliferative activity against TARBP2-knockout human HCCLM3 cells cultured as 3D cells assessed as inhibition of cell growth at 25 uM incubated for 72 hrs by CellTiter-Lumi assay; format: functional, cell-based
SK-HEP1 [21] = test: Antiproliferative activity against human SK-HEP1 cells cultured as 3D cells assessed as inhibition of cell growth at 25 uM incubated for 72 hrs by CellTiter-Lumi assay; format: functional, cell-based
HCCLM3 [22] = test: Antiproliferative activity against human HCCLM3 cells cultured as 3D cells assessed as inhibition of cell growth at 25 uM incubated for 72 hrs by CellTiter-Lumi assay; format: functional, cell-based
SK-HEP1 [23] = test: Inhibition of cell migration in human SK-HEP1 cells incubated for 24 hrs by transwell assay; format: functional, cell-based
HCCLM3 [24] = test: Inhibition of cell migration in human HCCLM3 cells incubated for 24 hrs by transwell assay; format: functional, cell-based
SK-HEP1 [25] = test: Inhibition of cell migration in TARBP2-knockout human SK-HEP1 cells at 1 to 25 uM incubated for 24 hrs by transwell assay; format: functional, cell-based; conditions: dose 1-25 µM
HCCLM3 [26] = test: Inhibition of cell migration in TARBP2-knockout human HCCLM3 cells at 1 to 25 uM incubated for 24 hrs by transwell assay; format: functional, cell-based; conditions: dose 1-25 µM
[27] = Inhibition of PI3K/AKT/mTOR signaling pathway in human HCCLM3 cells assessed as downregulation of AKT phosphorylation incubated for 24 hrs by Western blotting analysis; format: cell-based
[28] = Inhibition of PI3K/AKT/mTOR signaling pathway in human HCCLM3 cells assessed as downregulation of mTOR phosphorylation incubated for 24 hrs by Western blotting analysis; format: cell-based
HCCLM3 [29] = test: Antiproliferative activity against human HCCLM3 cells assessed as upregulation of SMAD7 expression at 10 uM by Western blotting analysis; format: functional, cell-based
HCCLM3 [30] = test: Antiproliferative activity against human HCCLM3 cells assessed as downregulation of SMAD2 phosphorylation at 10 uM by Western blotting analysis; format: functional, cell-based
HCCLM3 [31] = test: Antiproliferative activity against human HCCLM3 cells assessed as downregulation of SMAD3 phosphorylation at 10 uM by Western blotting analysis; format: functional, cell-based
HCCLM3 [32] = test: Antiproliferative activity against human HCCLM3 cells assessed as upregulation of SMAD7 expression incubated for 24 hrs by Western blotting analysis; format: functional, cell-based
HCCLM3 [33] = test: Antiproliferative activity against human HCCLM3 cells assessed as downregulation of SMAD2 phosphorylation incubated for 24 hrs by Western blotting analysis; format: functional, cell-based
HCCLM3 [34] = test: Antiproliferative activity against human HCCLM3 cells assessed as downregulation of SMAD3 phosphorylation incubated for 24 hrs by Western blotting analysis; format: functional, cell-based
[35] = Acute toxicity in Kunming mouse assessed as animal death at 100 mg/kg,ip administration measured after 14 days; format: organism-based; conditions: in vivo, 336 h, time 14 day
[36] = Acute toxicity in Kunming mouse assessed as body weight loss at 100 mg/kg,ip administration measured after 14 days; format: organism-based; conditions: in vivo, 336 h, time 14 day
[37] = Acute toxicity in Kunming mouse assessed as effect on AST level in liver at 100 mg/kg,ip administration measured after 14 days; format: organism-based; conditions: in vivo, 336 h, time 14 day
[38] = Acute toxicity in Kunming mouse assessed as effect on ALT level in liver at 100 mg/kg,ip administration measured after 14 days; format: organism-based; conditions: in vivo, 336 h, time 14 day
[39] = Acute toxicity in Kunming mouse assessed as effect on ALB level in liver at 100 mg/kg,ip administration measured after 14 days; format: organism-based; conditions: in vivo, 336 h, time 14 day
[40] = Acute toxicity in Kunming mouse assessed as effect on total bilirubin level in liver at 100 mg/kg,ip administration measured after 14 days; format: organism-based; conditions: in vivo, 336 h, time 14 day
[41] = Acute toxicity in Kunming mouse assessed as effect on direct bilirubin level in liver at 100 mg/kg,ip administration measured after 14 days; format: organism-based; conditions: in vivo, 336 h, time 14 day
[42] = Acute toxicity in Kunming mouse assessed as effect on urea level in kidney at 100 mg/kg,ip administration measured after 14 days; format: organism-based; conditions: in vivo, 336 h, time 14 day
[43] = Acute toxicity in Kunming mouse assessed as effect on creatinine level in kidney at 100 mg/kg,ip administration measured after 14 days; format: organism-based; conditions: in vivo, 336 h, time 14 day
[44] = Acute toxicity in Kunming mouse assessed as effect on uric acid level in kidney at 100 mg/kg,ip administration measured after 14 days; format: organism-based; conditions: in vivo, 336 h, time 14 day
[45] = Acute toxicity in Kunming mouse assessed as effect on creatine kinase level in heart at 100 mg/kg,ip administration measured after 14 days; format: organism-based; conditions: in vivo, 336 h, time 14 day
[46] = Acute toxicity in Kunming mouse assessed as effect on lactate dehydrogenase level in heart at 100 mg/kg,ip administration measured after 14 days; format: organism-based; conditions: in vivo, 336 h, time 14 day
[47] = Acute toxicity in Kunming mouse assessed as pathological change in heart at 100 mg/kg,ip administration measured after 14 days by hematoxylin and eosin staining based microscopic analysis; format: organism-based; conditions: in vivo, 336 h, time 14 day
[48] = Acute toxicity in Kunming mouse assessed as pathological change in spleen at 100 mg/kg,ip administration measured after 14 days by hematoxylin and eosin staining based microscopic analysis; format: organism-based; conditions: in vivo, 336 h, time 14 day
[49] = Acute toxicity in Kunming mouse assessed as pathological change in lung at 100 mg/kg,ip administration measured after 14 days by hematoxylin and eosin staining based microscopic analysis; format: organism-based; conditions: in vivo, 336 h, time 14 day
[50] = Acute toxicity in Kunming mouse assessed as pathological change in kidney at 100 mg/kg,ip administration measured after 14 days by hematoxylin and eosin staining based microscopic analysis; format: organism-based; conditions: in vivo, 336 h, time 14 day
HCCLM3 [51] = test: Antiproliferative activity against human HCCLM3 cells cultured as 2D cells assessed as inhibition of cell growth at 10 to 50 uM incubated for 72 hrs by CCK-8 assay; format: functional, cell-based; conditions: dose 10-50 µM
SK-HEP1 [52] = test: Antiproliferative activity against human SK-HEP1 cells cultured as 2D cells assessed as inhibition of cell growth at 10 to 50 uM incubated for 72 hrs by CCK-8 assay; format: functional, cell-based; conditions: dose 10-50 µM
SK-HEP1 [53] = test: Inhibition of cell migration in human SK-HEP1 cells at 10 to 50 uM incubated for 24 hrs by transwell assay; format: functional, cell-based; conditions: dose 10-50 µM
HCCLM3 [54] = test: Inhibition of cell migration in human HCCLM3 cells at 10 to 50 uM incubated for 24 hrs by transwell assay; format: functional, cell-based; conditions: dose 10-50 µM

CNC(=O)c1cc(Oc2ccc(NC(=O)Nc3ccc(Cl)c(C(F)(F)F)c3)cc2)ccn1 [SORAFENIB]
Activity (HCCLM3 [1]): Active
Activity (HCCLM3 [2]): Active
Activity [3]: Toxic
Activity [4]: Toxic
Activity [5]: Non-toxic
Activity [6]: Non-toxic
Activity [7]: Non-toxic
Activity [8]: Non-toxic
Activity [9]: Non-toxic
half-life at 96 h [10]: 1310 min

COCCOc1ccc(-c2nc(C)c(C(=O)O)s2)cc1
Activity (SK-HEP1 [11]): inactive
Activity (HCCLM3 [12]): inactive
Activity (SK-HEP1 [13]): Active
Activity (HCCLM3 [14]): Active
Activity (HCCLM3 [1]): Active
inhibition (SK-HEP1 [15]): Active
inhibition (HCCLM3 [16]): Active
inhibition (SK-HEP1 [17]): Active
inhibition (HCCLM3 [18]): Active
inhibition (Homo sapiens): Active
Activity (SK-HEP1 [19]): inactive
Activity (HCCLM3 [20]): inactive
Activity (SK-HEP1 [21]): Active
Activity (HCCLM3 [22]): Active
inhibition (SK-HEP1 [23]): Dose-dependent-effect
inhibition (HCCLM3 [24]): Dose-dependent-effect
inhibition (SK-HEP1 [25]): inactive
inhibition (HCCLM3 [26]): inactive
inhibition [27]: Dose-dependent-effect
inhibition [28]: Dose-dependent-effect
Activity (HCCLM3 [29]): Time-dependent-effect
Activity (HCCLM3 [30]): Time-dependent-effect
Activity (HCCLM3 [31]): Time-dependent-effect
Activity (HCCLM3 [32]): Dose-dependent-effect
Activity (HCCLM3 [33]): Dose-dependent-effect
Activity (HCCLM3 [34]): Dose-dependent-effect
Activity [35]: Non-toxic
Activity [36]: Non-toxic
Activity [37]: Non-toxic
Activity [38]: Non-toxic
Activity [39]: Non-toxic
Activity [40]: Non-toxic
Activity [41]: Non-toxic
Activity [42]: Non-toxic
Activity [43]: Non-toxic
Activity [44]: Non-toxic
Activity [45]: Non-toxic
Activity [46]: Non-toxic
Activity [47]: Non-toxic
Activity [48]: Non-toxic
Activity [49]: Non-toxic
Activity [50]: Non-toxic

Cc1nc(-c2ccc(OCC3CCC3)cc2)sc1C(=O)O
Activity (SK-HEP1 [11]): inactive
Activity (HCCLM3 [12]): inactive

Cc1nc(-c2ccc(OCC(C)C)c(C#N)c2)sc1C(=O)O
Activity (HCCLM3 [51]): Active
Activity (SK-HEP1 [52]): Active
inhibition (SK-HEP1 [53]): Active
inhibition (HCCLM3 [54]): Active
